In US4665078A, “2-(3-amino-5-halo-2-pyridylalkylamino)-pyrimidones useful as histamine H1-antagonists” (Smith Kline & French Laboratories Limited, priority 1983, dated 1987):

How the values were obtained:
histamine H1-receptor [1] = experiment: inhibition of H1-agonist induced reduction of blood pressure in the anaesthetised cat; type: in vivo; settings: intravenous (femoral veins), 2-(2-aminoethyl)pyridine-induced reduction in blood pressure
Procedure: Cats of either sex weighing between 2 and 3 kg were starved overnight and anaesthetised with sodium pentabarbitone (60 mg/kg i.p.). The trachea was cannulated and blood pressure was measured in a femoral artery. The compound under investigation was administered by cannulae in the right and left femoral veins. Anaesthetic was administered as required into one brachial vein. Dose-response curves were constructed by administering a standard H1 -agonist, 2-(2-aminoethyl)pyridine in increasing dose from 10^-8 mol/kg to 10^-5 mol/kg. The 2-(2-aminoethyl)pyridine-induced reduction in blood pressure was measured. The effect of the antagonists can be quantified by displacement of the 2-(2-aminoethyl)pyridine dose-response curve expressed as a dose-ratio. The compounds of Examples 1 and 2 caused displacement of the dose-responsecurves with a dose-ratio of 10 at doses of 0.06 and 0.0058 micromole/kg respectively.

histamine H2-receptor = biological target: T1, histamine H2-receptor (Cavia porcellus, UniProt P47747); experiment: guinea pig atrium test (in vitro histamine H2-antagonist activity); settings: isolated guinea pig right atrium, histamine-induced rate of beating, 60 min contact, 37° C.; read-out: pA2 value (converted)
T1 construct: a spontaneously beating isolated portion of the guinea pig right atrium is secured under tension; from tissue; host or cells: isolated guinea pig right atrium
Procedure: In this test a spontaneously beating isolated portion of the guinea pig right atrium is secured under tension (300 mg) between an anchorage and a transducer in a 15 ml tissue bath and immersed in McEwens solution with constant aeration at a temperature of 37° C. The output from the transducer is amplified. Output is in turn fed to a flat bed recorder. Measured amounts of histamine are added to the tissue bath so that the histamine concentration increases step-wise until the rate of beating reaches a maximum. The tissue bath is washed out and filled with fresh McEwens solution containing compound under test. The solution is left in contact with the tissue for 60 min. and measured amounts of histamine are added again until a maximum rate is recorded. The assay is repeated with increasing concentrations of test compound and the dose of histamine giving 50% of maximum rate is noted. A dose ratio (DR) was calculated by comparing the concentrations of histamine required to produce 50% maximum response in the absence and in the presence of the antagonist. A plot of Log DR-1 against Log D (the concentration of compound under test) is made and the point of intersection with the Log (DR-1) ordinate is taken as the measure of the activity (pA2 value).

histamine H1-receptor [2] = biological target: T2, histamine H1-receptor (Cavia porcellus, UniProt P31389); experiment: inhibition of histamine induced bronchoconstriction in anaesthetised guinea pigs; type: in vivo; settings: i.v., anaesthetised guinea pig, histamine curve 5 minutes after antagonist
T2 construct: an isolated portion of the guinea pig ileum is secured under tension; from tissue; host or cells: isolated guinea pig ileum
Procedure: Guinea pigs of either sex are anesthetised by intraperitoneal injection of sodium pentobarbitone, 90 mg/kg. The trachea is cannulated. The animal is respired artificially with a fixed volume of air just adequate to inflate the lungs. The pressure needed to inflate the lungs is monitored from the respiratory system using a low pressure transducer. Intranvenous injection of histamine causes dose-dependent increases in the pressure to inflate the lungs reflecting the bronchoconstrictor action of histamine. Responses to histamine can be antagonised using histamine H1 -receptor antagonists.
Dose-response curves to histamine are established at 20, 40, 80, 160 and 320 nmols/kg. Antagonists are then administered by intravenous injection and 5 minutes later a new histamine dose-response curve is established increasing the doses of histamine as necessary. The effect of the antagonist can be quantified by the displacement, to the right, of the histamine dose-response curve, expressed as a dose-ratio. A series of doses of antagonists may be given to each animal allowing calculation of dose-ratios for each dose of antagonist. The compounds of Examples 1 and 2 hereafter cause displacement of histamine dose-response curves with a dose-ratio of 10 at doses of less than 0.8 micromole kg^-1 i.v.

histamine H1-receptor [3] = biological target: T2, histamine H1-receptor; experiment: guinea pig ileum test (in vitro histamine H1-antagonist activity); settings: isolated guinea pig ileum, histamine-induced contraction, 8 min contact, 30° C.; read-out: pA2 value (converted)
Procedure: In this test an isolated portion of the guinea pig ileum is secured under tension (500 mg) between an anchorage and a transducer in a 10 ml tissue bath and immersed in magnesium free Tyrode solution with constant aeration at a temperature of 30° C. The output from the transducer is amplified. The amplified output is in turn fed to a flat bed recorder. Measured amounts of histamine are added to the tissue bath so that the histamine concentration increases step-wise until the force of the contraction reaches a maximum. The tissue bath is washed out and filled with fresh magnesium free Tyrode solution containing compound under test. The solution is left in contact with the tissue for 8 min. and measured amounts of histamine are added again until a maximum contraction is recorded. The assay is repeated with increasing concentrations of test compound and the dose of histamine giving 50% of maximum contraction is noted. A dose ratio (DR) was calculated by comparing the concentrations of histamine required to produce 50% maximum response in the absence and in the presence of the antagonist. A plot of Log DR-1 against Log D (the concentration of compound under test) is made and the point of intersection with the Log (DR-1) ordinate is taken as the measure of the activity (pA2 value).

T2 sequence (P31389 whole entry): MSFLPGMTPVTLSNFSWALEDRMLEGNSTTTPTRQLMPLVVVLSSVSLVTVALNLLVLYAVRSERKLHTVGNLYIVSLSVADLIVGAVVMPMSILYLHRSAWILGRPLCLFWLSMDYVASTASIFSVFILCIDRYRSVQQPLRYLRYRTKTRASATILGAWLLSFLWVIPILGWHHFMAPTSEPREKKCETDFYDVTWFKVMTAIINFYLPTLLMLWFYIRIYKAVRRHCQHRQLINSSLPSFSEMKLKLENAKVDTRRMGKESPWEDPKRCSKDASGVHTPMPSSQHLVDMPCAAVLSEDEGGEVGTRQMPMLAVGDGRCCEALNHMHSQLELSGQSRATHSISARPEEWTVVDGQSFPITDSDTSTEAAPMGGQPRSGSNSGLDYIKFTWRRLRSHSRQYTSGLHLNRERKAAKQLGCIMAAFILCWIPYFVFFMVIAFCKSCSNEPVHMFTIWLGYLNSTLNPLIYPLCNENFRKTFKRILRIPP
T1 sequence (P47747 whole entry): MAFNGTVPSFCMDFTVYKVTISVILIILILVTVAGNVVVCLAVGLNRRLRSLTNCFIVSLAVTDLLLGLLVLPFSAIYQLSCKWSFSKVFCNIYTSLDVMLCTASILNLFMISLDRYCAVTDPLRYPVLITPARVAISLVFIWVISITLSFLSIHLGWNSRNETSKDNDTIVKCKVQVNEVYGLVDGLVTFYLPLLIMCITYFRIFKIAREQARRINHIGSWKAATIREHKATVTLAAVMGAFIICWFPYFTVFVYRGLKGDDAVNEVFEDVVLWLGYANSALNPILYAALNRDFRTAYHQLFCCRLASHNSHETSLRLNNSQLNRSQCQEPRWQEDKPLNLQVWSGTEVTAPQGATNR

Structure (SMILES)	dose causing displacement of the 2-(2-aminoethyl)pyridine dose-response curve with a dose-ratio of 10 (histamine H1-receptor [1]) [µmol/kg]	Kb (histamine H2-receptor) [nM]	dose causing displacement of histamine dose-response curves with a dose-ratio of 10 (histamine H1-receptor [2])	Kb (histamine H1-receptor [3]) [nM]
Nc1cc(Br)cnc1CCCCNc1ncc(Cc2cc[n+]([O-])cc2)c(=O)[nH]1 [Example 2, 2-[4-(5-bromo-3-aminopyrid-2yl)butylamino]-5-(N-oxopyrid-4-ylmethyl)-4-pyrimidone]	0.0058	> 1000	less than 0.8 micromole kg^-1	< 10
Cc1ccc(Cc2cnc(NCCCCc3ncc(Br)cc3C)[nH]c2=O)cn1 [2-[4-(5-bromo-3-methylpyrid-2-yl)butylamino]-5-(6-methylpyrid-3-ylmethyl)-4-pyrimidone, reference compound]	0.215			
Cc1ccc(Cc2cnc(NCCCCc3ncc(Br)cc3N)[nH]c2=O)cn1 [Example 1, 2-[4-(5-bromo-3-aminopyrid-2-yl)butylamino]-5-(6-methylpyrid-3-ylmethyl) 4-pyrimidone]	0.06	> 1000	less than 0.8 micromole kg^-1	< 10
